Results on 1 molecule are retold here after publication PMC4790851, “Iminosugars Inhibit Dengue Virus Production via Inhibition of ER Alpha-Glucosidases—Not Glycolipid Processing Enzymes” (PLoS Neglected Tropical Diseases, 2016).

Test [1] deals with DENV. Also on record: method as in PMID 22020302. The following applies: BHK-21 (hamster kidney) cell culture model; cited from earlier work.
Test [2] has as its target T1, Glucosyltransferase HL60 (Homo sapiens, UniProt Q16739).
T1 construct: endogenous in cells; host or cells: HL60
T1 sequence (Q16739 1-394): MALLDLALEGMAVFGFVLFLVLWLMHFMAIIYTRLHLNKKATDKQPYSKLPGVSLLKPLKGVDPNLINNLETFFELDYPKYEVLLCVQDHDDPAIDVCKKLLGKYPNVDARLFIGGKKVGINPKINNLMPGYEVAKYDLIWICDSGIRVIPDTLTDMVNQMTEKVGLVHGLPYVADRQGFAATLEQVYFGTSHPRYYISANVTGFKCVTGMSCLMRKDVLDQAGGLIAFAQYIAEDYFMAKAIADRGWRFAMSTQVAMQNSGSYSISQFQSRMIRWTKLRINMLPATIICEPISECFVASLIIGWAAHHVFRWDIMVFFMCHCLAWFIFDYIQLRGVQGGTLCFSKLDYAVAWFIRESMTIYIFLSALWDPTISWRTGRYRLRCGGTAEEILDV
Briefly: In vitro enzyme inhibition. Format: biochemical. The following applies: glucosyltransferase isolated from HL60 human promyelocytic cell line; read-out: IC50.

The subject of test [3] is DENV2 D2S10. Briefly: Lethal mouse model of antibody-enhanced DENV infection. The following applies: 33.3 mg/kg/dose t.i.d. p.o. Format: in vivo, AG129 mice. On the procedure: Virus titers of samples isolated from infected mice were obtained by BHK-21 plaque assays in accordance with previous protocols. BHK-21 cells were seeded in 12-well plates (3 x 10^5 cells/well) in α-MEM medium containing 5% HI-FBS for 3 hours (37°C, 5% CO2). Medium was removed, log10 serial dilutions of virus in α-MEM with 2% HI-FBS were added, and cells were incubated for an additional 2 hours (37°C, 5% CO2). Following incubation, 1.5 ml of α-MEM containing 5% (v/v) HI-FBS and 1% (w/v) low-melting point tissue culture grade agarose (Sigma) was added to each well and allowed to solidify at room temperature before further incubation (37°C, 5% CO2) for 5 days. Plaques were visualised after fixation in 10% formaldehyde (1 hour, room temperature) and removal of the agarose plug by staining briefly (approximately 30 seconds) with 1% (w/v) crystal violet (Sigma) in 20% (v/v) ethanol (EtOH, Sigma). Concentrations were normalised to tissue mass (in grams) or serum volume (in ml) as appropriate.
For animal experiments, multiplex qRT-PCR was conducted on all tissue isolates and plasma as described for in vitro experiments. Rodent glyceraldehyde 3-phosphate dehydrogenase (GAPDH) control (Life Technologies #4308313) containing a VIC reporter dye was attached to a TAMRA (tetramethylrhodamine) quencher, and experimental DENV NS5-specific target was labelled with FAM (6-fluorescein amidite) reporter dyes with a TAMRA quencher. GAPDH primers were used at 10 μM and probe at 20 μM. In the case of DENV qRT-PCR, quantitation using a DENV2-specific primer/probe set directed to NS5 was conducted using all primers and probe at 10 μM final concentration. Thermocycling was conducted as for in vitro experiments. Viral RNA from tissues was quantified by ΔΔCt method, whereas plasma samples were quantified relative to a standard curve as for in vitro experiments. Samples were read in technical duplicate and 95% confidence intervals were determined based on biological and technical variation and graphed using Prism 6 (GraphPad Software, Inc.).
All experimental procedures were pre-approved by the UC Berkeley Animal Care and Use Committee and were performed according to the guidelines of the UC Berkeley Animal Care and Use Committee, the United States Public Health Service, and the USDA Animal Welfare Act. Mice of the 129/Sv background deficient in interferon (IFN)-α/β and -γ receptors (AG129 mice) were infected with DENV under antibody-enhanced conditions as previously described. Mice were primed 24 hours prior to infection with a 5 μg intraperitoneal (i.p.) injection of a pan-flavivirus monoclonal antibody against E protein, 4G2. At t = 0, 10^5 pfu of DENV2 D2S10 was injected intravenously. […]

[4] abbreviates: serum at 80 h post-infection, AG129 mice, listed as celgosivir.

“Also recorded” adds a separate entry of the source.

As for `CCCC(=O)O[C@H]1CN2CC[C@H](O)[C@@H]2[C@@H](O)[C@@H]1O` [Celgosivir, 6-O-butanoyl-castanospermine], the “enhancement of antiviral efficacy over castanospermine” value in test [1] is listed as ~ 100 fold. For the same molecule, the IC50 in test [2] is greater than 1 mM. For the same molecule, the “viral RNA levels in spleen” value in test [3] (80 h post-infection, qRT-PCR normalized to GAPDH) is recorded as “enhanced viral RNA levels by approximately two orders of magnitude”. The “infectious virus level in serum (BHK-21 plaque assay)” value in test [3] (serum at 80 h post-infection, AG129 mice) is given as “reduced the average viral titer, but the differences were not statistically significant”. For the same molecule, in test [3] (setting [4]), the “circulating viral load (viral RNA, qRT-PCR)” value was “significantly reduced; also recorded: statistically significant reduction in viral RNA load” and the “infectious virus level in serum (BHK-21 plaque assay)” value is given as “not statistically significant”.
